Results published in US8298793B2, “Methods for isolating proteons from plasma samples” (Auburn University, priority 2002, dated 2012).
Where “and” joins values, the source holds several entries; their conditions need not be identical. Equal values may be shown once. Entries after “also recorded” stand apart in the source; their conditions may differ. Where a name gives a salt, the structure may show the parent alone.

Columns and labels:
proteons = assay: Proteon formation in plasma, counted by dark-field microscopy; type: biochemical; conditions: for number of proteons visible by dark-field microscopy: added to proteons produced without chaotropic compounds, then 120° C. and 20 psi; for number of proteons with rising concentration of chaotropic compound: plasma with 0, 0.01, 0.1, 1, 4 and 8 M, 120° C., 20 psi, dark-field microscopy
RG2 cells = assay: MTT cell proliferation assay on RG2 glioma cells; type: cell-based, mouse
Experimental: The impact of PNCs upon viability of various cultured cells was investigated using the tetrazolium salt (MTT) cell proliferation assay. RG2 (mouse brain glioma), F98 (rat brain glioma), Hs683 (human brain glioma), CTX TNA2 (rat transfected astrocyte), H9c2[2-1] (rat heart myocardium), 27FR (rat skin fibroblast), and SVGp12 (human brain astroglia) cells were obtained from American Type Culture Collection (ATCC) and maintained as recommended by ATCC. […] Cells were plated in Dulbecco's modified Eagle's growth medium ([MUT], Sigma Chemical Inc., St. […] PNCs were autoclaved at 120° C. and 20 psi for 15 minutes before adding to the cell cultures. […] MTT was reduced in metabolically active cells to form purple formazan crystals, which were dissolved by DMSO and quantified by a BIO-RADTM plate reader. For each cell type, a linear relationship between cell number and absorbance is established, enabling accurate, straightforward quantification of changes in proliferation. […] Catalog No. S5921), 100 μg, FW 466.5. Dissolve 100 μg staurospine into 214.3 μl • DMSO to equal a 1 mM stock solution. Store at -200° C. […] TX put on late afternoon. • Add staurospine, autoclaved shark PNC, and either 10%, 1%, or 0% FCS treatments to cells and incubate overnight.

[1] = test system: H9c2[2-1] (rat heart myocardium) cells; assay: MTT cell proliferation assay on myocardium cells; type: cell-based; conditions: Staurosporine, 1% FCS, concentration not given
From the text: (§1) The impact of PNCs upon viability of various cultured cells was investigated using the tetrazolium salt (MTT) cell proliferation assay. RG2 ([…] brain glioma), F98 (rat brain glioma), Hs683 (human brain glioma), CTX TNA2 (rat transfected astrocyte), H9c2[2-1] (rat heart myocardium), 27FR (rat skin fibroblast), and SVGp12 (human brain astroglia) cells were obtained from American Type Culture Collection (ATCC) and maintained as recommended by ATCC. MTT cell proliferation assays are commercially available. See, e.g., MTT cell proliferation assay from ATCC. Cells were plated in Dulbecco's modified Eagle's growth medium ([…], Sigma Chemical Inc., St. […] PNCs were isolated from blood obtained from shark, dog, and rabbit using the ultrafiltration protocol described in Example 5. PNCs were autoclaved at 120° C. and 20 psi for 15 minutes before adding to the cell cultures. […] MTT was reduced in metabolically active cells to form purple formazan crystals, which were dissolved by DMSO and quantified by a BIO-RADTM plate reader. For each cell type, a linear relationship between cell number and absorbance is established, enabling accurate, straightforward quantification of changes in proliferation.

[2] = test system: F98 (rat brain glioma) cells; assay: MTT cell proliferation assay on F98 glioma cells; type: cell-based; conditions: Staurosporine, 1% FCS, concentration not printed; for Absorbance at 550 nm (MTT), single well: listed as Staurosporine
From the text: as §1

[3] = test system: SVGp12 (human brain astroglia) cells; assay: MTT cell proliferation assay on SVG astrocytes; type: cell-based; conditions: SVG astro, Staurosporine, 1% FCS, concentration not printed; for Absorbance at 550 nm (MTT), single well: listed as Staurosporine
From the text: as §1

[4] = test system: CTX TNA2 (rat transfected astrocyte) cells; assay: MTT cell proliferation assay on CTX astrocytes; type: cell-based; conditions: CTX astro, Staurosporine, 1% FCS
From the text: as §1

[5] = test system: 27FR (rat skin fibroblast) cells; assay: MTT cell proliferation assay on fibroblasts; type: cell-based; conditions: Fibro, Staurosporine, 1% FCS
From the text: as §1

[6] = RG2, 10% FCS, staurosporine 1 μM, Table 6
[7] = RG2, Staurosporine 100 urn, 1% FCS, Table 10
[8] = RG2, Staurosporine, 1% FCS, Table 10, concentration not given
[9] = myocard, Table 10 second myocard column
[10] = Table 10, concentration not given

SMILES: N=C(N)N [guanidine hydrochloride]
- number of proteons visible by dark-field microscopy (proteons): great reduction
- number of proteons with rising concentration of chaotropic compound (proteons): decreased

SMILES: CN[C@@H]1C[C@H]2O[C@@](C)([C@@H]1OC)n1c3ccccc3c3c4c(c5c6ccccc6n2c5c31)C(=O)NC4 [staurosporine]
- Ab. Av. (Absorbance at 550 nm, MTT) (RG2 cells; [6]): 0.4053
- Absorbance at 550 nm (MTT), single well (RG2 cells; [6]): 0.406 and 0.411 and 0.399
- Ab. Av. (Absorbance at 550 nm, MTT) (RG2 cells; [7]): 0.2893
- Absorbance at 550 nm (MTT), single well (RG2 cells; [7]): 0.272 and 0.279
- Ab. Av. (Absorbance at 550 nm, MTT) (RG2 cells; [8]): 0.1268
- Absorbance at 550 nm (MTT), single well (RG2 cells; [8]): 0.149 and 0.12 and 0.119
- Ab Av. (Absorbance at 550 nm, MTT) (RG2 cells; RG2, stauro 1% FCS (1 μM per protocol b158), Table 7): 0.09867
- Ab. Av. (Absorbance at 550 nm, MTT) ([1]; Myocard, Table 10 first Myocard column): 0.283
- Ab. Av. (Absorbance at 550 nm, MTT) [1, 9]: 0.16
- Absorbance at 550 nm (MTT), single well [1, 9]: 0.176
- Ab. Av. (Absorbance at 550 nm, MTT) ([2]; Table 10 first F98 column): 0.1333
- Absorbance at 550 nm (MTT), single well ([2]; Table 10 first F98 column): 0.136 and 0.138 and 0.12 and 0.139
- Ab. Av. (Absorbance at 550 nm, MTT) ([2]; Table 10 second F98 column): 0.1085
- Absorbance at 550 nm (MTT), single well ([2]; Table 10 second F98 column): 0.108 and 0.109
- Ab. Av. (Absorbance at 550 nm, MTT) ([3]; Table 10 first SVG column): 0.128
- Absorbance at 550 nm (MTT), single well ([3]; Table 10 first SVG column): 0.128 and 0.12 and 0.136
- Ab. Av. (Absorbance at 550 nm, MTT) ([3]; Table 10 second SVG column): 0.067
- Absorbance at 550 nm (MTT), single well ([3]; Table 10 second SVG column): 0.067 and 0.066 and 0.068
- Ab. Av. (Absorbance at 550 nm, MTT) [4, 10]: 0.1445
- Absorbance at 550 nm (MTT), single well [4, 10]: 0.122 and 0.118 and 0.126
- Ab. Av. (Absorbance at 550 nm, MTT) ([4]; Table 10 first CTX column, concentration not given): 0.3782
- Ab. Av. (Absorbance at 550 nm, MTT) [5, 10]: 0.2757
- Absorbance at 550 nm (MTT), single well [5, 10]: 0.296 and 0.257 and 0.275
- Ab. Av. (Absorbance at 550 nm, MTT) ([5]; Table 10 second Fibro column, concentration not given): 0.169

SMILES: O=C(O)CN(CCN(CC(=O)O)CC(=O)O)CC(=O)O [EDTA, ethylene diamine tetra acetate]
- effect on formation of proteons from plasma (proteons; 10 mM EDTA added): prevented the formation of proteon; also recorded: production was quenched

SMILES: NC(N)=O [urea]
- number of proteons visible by dark-field microscopy (proteons): great reduction
- number of proteons with rising concentration of chaotropic compound (proteons): decreased
